Laboratory results reported in patent publication EP4722203A1, “3,4-DIHYDROPHTHALAZIN-1(2H)-ONE DERIVATIVE, AND PREPARATION METHOD THEREFOR AND USE THEREOF” (Academy of Military Medical Sciences, priority 2023, dated 2024).

Assays:
MV-4-11 cells = assay: Antiproliferative activity, CCK-8 assay; format: cell-based; settings: Homo sapiens, MV4-11; 144 hours incubation, CCK-8, absorbance at 450 nm
Description: (§1) The cell models used in this example were human hematologic tumor cells, including NCI-H929, RPMI-8226, MV-4-11, U937 and WSU-DLCL-2. Some of the compounds of the present invention were selected to determine their inhibitory activity against the proliferation of NCI-H929, RPMI-8226, MV-4-11, U937, and WSU-DLCL-2 cells.
(§2) • ① The selected compounds were dissolved in DMSO to prepare 10 mM stock solutions. Compounds used within three months should be stored at room temperature in a desiccator; others could be stored at -20°C for long-term storage. • ② The above stock solutions and the positive reference compound pomalidomide were diluted with DMSO. Their initial concentrations were 10 µM. In the experiments of NCI-H929 and RPMI-8226 cells, 3-fold serial dilution with 11 concentration points was performed, with the lowest concentration of 0.00047 µM. The resulting solutions were shaken on a shaker for 5 minutes.
(§3) • ① The NCI-H929, RPMI-8226, MV-4-11, U937, and WSU-DLCL-2 cells in logarithmic growth phase were inoculated in a 96-well plate, 20,000 to 30,000 cells per well, and the plate was pre-cultured for 24 hours in an incubator (at 37°C and 5% CO2). • ② The culture medium in the plate was replaced, and the compounds and the positive control with corresponding concentrations were added to the plated at a volume of 50 µl. • ③ The plate was incubated for 144 hours in an incubator, then 15 µl of CCK-8 solution was added to each well, and incubated in the incubator for another 1-4 hours. • ④ The absorbance at 450 nm was measured using a microplate reader.
(§4) • ① Calculating % Inhibition: [formula] • ② Calculating IC50 value of compound and plotting dose-response curve: The IC50 value was calculated by fitting the % Inhibition and the logarithm of compound concentration to a nonlinear regression (dose response-variable slope) by using GraphPad 6.0. • Y = Bottom + (Top - Bottom) / (1 + 10^((LogIC50 - X) * HillSlope)) • X: log of inhibitor concentration; Y: % Inhibition.
(§5) After calculating % Inhibition, a dose-response curve was plotted with the logarithm of the test compound concentration as the x-axis and the average cell viability as the y-axis, and the IC50 value was obtained by fitting.

WSU-DLCL-2 cells = assay: Antiproliferative activity, CCK-8 assay; format: cell-based; settings: Homo sapiens, WSUDLCL2; 144 hours incubation, CCK-8, absorbance at 450 nm
Description: as §1, §2, §3, §4, §5

U937 cells = assay: Antiproliferative activity, CCK-8 assay; format: cell-based; settings: Homo sapiens, U-937; 144 hours incubation, CCK-8, absorbance at 450 nm
Description: as §1, §2, §3, §4, §5

NCI-H929 cells = assay: Antiproliferative activity, CCK-8 assay; format: cell-based; settings: Homo sapiens, 144 hours incubation, CCK-8, absorbance at 450 nm, read-out: IC50 (µM) H-929
Description: as §1, §2, §3, §4, §5

RPMI-8226 cells = assay: Antiproliferative activity, CCK-8 assay; format: cell-based; settings: Homo sapiens, 144 hours incubation, CCK-8, absorbance at 450 nm
Description: as §1, §2, §3, §4, §5

[1] = system: human multiple myeloma NCI-H929 xenograft tumors; assay: In vivo antitumor activity against NCI-H929 transplanted tumors; design: species or system NOD/SCID mice; settings: QD; for Tumor inhibition rate TGI (%) / Average volume (mm^3) (Day 10) / Initial volume (mm^3): oral gavage; for Tumor inhibition rate TGI (%): 10 consecutive days; for Initial volume (mm^3): baseline
Description: In this example, the human multiple myeloma NCI-H929 cell line was used as the cell model. The inhibitory effects of compounds on the growth of NOD/SCID mouse transplanted tumors of NCI-H929 tumor cells were determined. The evaluation methods and results are described below.
(§6) Human multiple myeloma NCI-H929 cells were routinely cultured in RPMI1640 containing 10% fetal bovine serum at 37°C in a 5% CO2 incubator. After three passages in vitro, when the cells reached over 80% confluence and the required confluence rate, the cells were digested and harvested. After washing with PBS, the cells were counted and the cell concentration was adjusted to approximately 5 × 10^7 cells/mL. The cells were then placed in 4 mL centrifuge tubes on ice for later use.
(§7) Female NOD/SCID mice aged 4-5 weeks were selected and subcutaneously inoculated with NCI-H929 cells ectopically. The mice were held in a lateral position, the forelimb axilla was disinfected with 75% alcohol, and 100 µL of the cell suspension was injected subcutaneously into the axilla using a 1 mL syringe ([…]/100 µL).
After the tumors grew to 90-150 mm^3, the animals were randomly divided into groups, 8 mice in each group, and administered according to different administration methods as follows: • Model control group: Administered with the same volume of Vehicle (DMSO: 0.5% sodium carboxymethyl cellulose: distilled water = 1:1:8) daily by gavage; • Control drug group 1: administered with pomalidomide solution at 10 mg/kg (mouse body weight) daily by gavage; • Control drug group 2: administered with CC-220 solution at 3 mg/kg (mouse body weight) daily by gavage; • Control drug group 3: administered with CC-220 solution at 10 mg/kg (mouse body weight) daily by gavage; • Experimental compound group 4: administered with compound I-4 solution at 3 mg/kg (mouse body weight) daily by gavage; • Experimental compound group 5: administered with compound I-4 solution at 10 mg/kg (mouse body weight) daily by gavage; • Experimental compound group 6: administered with compound I-8 solution at 3 mg/kg (mouse body weight) daily by gavage; • Experimental compound group 7: administered with compound I-8 solution at 10 mg/kg (mouse body weight) daily by gavage;
(§8) The route of administration was oral gavage, and the administration frequency was once daily, for 10 consecutive days. The first day of administration was defined as Day 1 of the experiment. Tumor volume changes in mice were measured and recorded every two days. Tumor volume was measured using a vernier caliper, in which the major axis (a) and minor axis (b) of the tumor were measured, and the tumor volume was calculated as tumor volume V (mm^3) = a x b^2/2. After the experiment, the mice were dissected and the tumor weight was measured. The data were entered and statistically analyzed using GraphPad Prism 6 software. The data are expressed as mean ± SEM (Standard Error of Mean), and one-way ANOVA was used. P ≤ 0.05 was considered statistically significant.

[2] = system: human multiple myeloma NCI-H929 xenograft tumors; assay: In vivo activity in combination with dexamethasone against NCI-H929 transplanted tumor; design: species or system NOD/SCID mice; settings: each drug 3 mg/kg, QD, oral gavage, alone or combined
Description: In this example, human multiple myeloma NCI-H929 cell line was selected as the cell model to determine the inhibitory effects of compound and dexamethasone alone, as well as combination thereof on the growth of NOD/SCID mouse transplanted tumors of NCI-H929 tumor cells. The evaluation methods and results are described below.
as §6, §7
After the tumors grew to 90-150 mm^3, the animals were randomly divided into groups, 8 mice in each group, and administered according to different administration methods as follows: • Model control group: Administered with the same volume of Vehicle (DMSO: 0.5% sodium carboxymethyl cellulose: distilled water = 1:1:8) daily by gavage; • Test group 1: administered with dexamethasone (Dex) solution at 3 mg/kg (mouse body weight) daily by gavage; • Test group 2: administered with I-4 solution at 3 mg/kg (mouse body weight) daily by gavage; • Test group 3: administered with I-8 solution at 3 mg/kg (mouse body weight) daily by gavage; • Test group 4: administered with dexamethasone at 3 mg/kg (mouse body weight) and 1-4 solution at 3 mg/kg (mouse body weight) daily by gavage; • Test group 5: administered with dexamethasone at 3 mg/kg (mouse body weight) and I-8 solution at 3 mg/kg (mouse body weight) daily by gavage;
as §8

[3] = system: human multiple myeloma NCI-H929 xenograft tumors; assay: In vivo activity of combination therapy with bortezomib or tazemetostat against NCI-H929 transplanted tumor; design: species or system NOD/SCID mice; settings: I-8 3 mg/kg QD; for Average volume (mm^3) (Day 10) / Tumor inhibition rate TGI (%) / Initial volume (mm^3): Bort 1 mg/kg BIW, Taze 100 mg/kg QD, combinations given as + Bort 3 mg/kg BIW / + Taze 3 mg/kg QD; for Initial volume (mm^3): baseline
Description: In this example, the human multiple myeloma NCI-H929 cell line was selected as the cell model to determine the inhibitory effects of compounds, bortezomib (Bort), and tazemetostat (Taze), as single drugs and in combination, on the growth of NOD/SCID mouse transplanted tumors of NCI-H929 tumor cells. The evaluation methods and results are described below.
as §6, §7
After the tumors grew to 90-150 mm^3, the animals were randomly divided into groups, 8 mice in each group, and administered according to different administration methods as follows: • Model control group: Administered with the same volume of Vehicle (DMSO: 0.5% sodium carboxymethyl cellulose: distilled water = 1:1:8) daily by gavage; • Test group 1: administered with I-8 solution at 3 mg/kg (mouse body weight) daily by gavage; • Test group 2: administered with bortezomib (Bort) solution at 1 mg/kg (mouse body weight) twice weekly by gavage; • Test group 3: administered with tazemetostat solution at 100 mg/kg (mouse body weight) daily by gavage; • Test group 4: administered with I-8 at 3 mg/kg (mouse body weight) daily by gavage and bortezomib (Bort) solution at 1 mg/kg (mouse body weight) twice weekly by gavage; • Test group 5: administered with I-8 at 3 mg/kg (mouse body weight) daily by gavage and tazemetostat (Taze) solution at 100 mg/kg (mouse body weight) daily by gavage;
as §8

IC50 (MV-4-11 cells) [µM] | IC50 (U937 cells) [µM] | IC50 (NCI-H929 cells) [µM] | IC50 (RPMI-8226 cells) [µM] | SMILES | IC50 (WSU-DLCL-2 cells) [µM] | other results
> 10 | 1.11 | 0.85 | 0.204 | CN1Cc2c(cc(F)cc2[N+](=O)[O-])C(=O)N1C1CCC(=O)NC1=O (stereo not shown) [I-13, 3-(7-fluoro-3-methyl-5-nitro-1-oxo-3,4-dihydrophthalazin-2(1H)-yl)piperidin-2,6-dione] | 0.88 | –
> 10 | 1.33 | 0.311 | 8.31 | CNc1cccc2c1CN(C)N(C1CCC(=O)NC1=O)C2=O (stereo not shown) [I-2, 3-(3-methyl-5-(methylamino)-1-oxo-3,4-dihydrophthalazin-2(1H)-yl)piperidin-2,6-dione] | 1.06 | –
– | – | – | – | O=C1CC[C@H](N2Cc3c(OCc4ccc(CN5CCOCC5)cc4)cccc3C2=O)C(=O)N1 [CC-220, reference compound] | – | Tumor inhibition rate TGI (%) ([1]; 3 mg/kg): 77.98%; Average volume (mm^3) (Day 10) ([1]; 3 mg/kg): 643.1 mm^3; Initial volume (mm^3) ([1]; 3 mg/kg): 214.6 mm^3; Tumor inhibition rate TGI (%) ([1]; 10 mg/kg): 100.09%; Average volume (mm^3) (Day 10) ([1]; 10 mg/kg): 205.5 mm^3; Initial volume (mm^3) ([1]; 10 mg/kg): 207.2 mm^3; body weight ([1]; 10 mg/kg, during the experiment, Figure 2B): decreasing trend in body weight
1.39 | 1.11 | 1.3 | – | CN1Cc2c(NCc3ccc(CN4CCN(c5ccccc5)CC4)cc3)cccc2C(=O)N1C1CCC(=O)NC1=O (stereo not shown) [I-3, 3-(3-methyl-1-oxo-5-((4-((4-phenylpiperazin-1-yl)methyl)benzyl)amino)-3,4-dihydrophthalazin-2(1H)-yl)piperidin-2,6-dione] | 0.279 | –
0.874 | 2.3 | > 10 | 0.499 | CN1Cc2c(N)cc(F)cc2C(=O)N1C1CCC(=O)NC1=O (stereo not shown) [I-12, 3-(5-amino-7-fluoro-3-methyl-1-oxo-3,4-dihydrophthalazin-2(1H)-yl)piperidin-2,6-dione] | 3.69 | –
0.0311 | 0.0522 | 0.032 | 1.26 | CN1Cc2c(NCc3ccc(CN4CCN(c5ccc(F)cc5)CC4)cc3)cccc2C(=O)N1C1CCC(=O)NC1=O (stereo not shown) [I-6] | 0.048 | –
0.0155 | 0.0348 | 0.028 | 0.442 | CN1Cc2c(NCc3ccc(CN4CCN(c5ccc(C#N)cc5)CC4)cc3)cccc2C(=O)N1C1CCC(=O)NC1=O (stereo not shown) [I-7] | 0.053 | –
– | – | – | – | C[C@@H]1C[C@H]2[C@@H]3CCC4=CC(=O)C=C[C@]4(C)[C@@]3(F)[C@@H](O)C[C@]2(C)[C@@]1(O)C(=O)CO [Dex, dexamethasone, reference compound] | – | Tumor inhibition rate TGI (%) ([2]; 10 consecutive days): 45.48%; Average volume (mm^3) (Day 10) ([2]; Day 10): 1048.6 mm^3; Initial volume (mm^3) ([2]; baseline): 185.7 mm^3
3.43 | 1.32 | – | – | CN1Cc2c(NCc3ccc(CN4CCOCC4)cc3)cccc2C(=O)N1C1CCC(=O)NC1=O (stereo not shown) [I-1, 3-(3-methyl-5-((4-(morpholinomethyl)benzyl)amino)-1-oxo-3,4-dihydrophthalazin-2(1H)-yl)piperidin-2,6-dione] | 0.358 | –
– | – | – | – | CCN(c1cc(-c2ccc(CN3CCOCC3)cc2)cc(C(=O)NCc2c(C)cc(C)[nH]c2=O)c1C)C1CCOCC1 [Taze, tazemetostat] | – | Average volume (mm^3) (Day 10) [3]: 1558.0 mm^3; Tumor inhibition rate TGI (%) [3]: 12.83%; Initial volume (mm^3) [3]: 110.8 mm^3
– | – | – | – | CC(C)C[C@H](NC(=O)[C@H](Cc1ccccc1)NC(=O)c1cnccn1)B(O)O [Bort, bortezomib] | – | Average volume (mm^3) (Day 10) [3]: 1249.7 mm^3; Tumor inhibition rate TGI (%) [3]: 30.78%; growth of NCI-H929 transplanted tumors (in words) ([3]; bortezomib 1 mg/kg BIW, tazemetostat 100 mg/kg QD, alone or combined): weaker tumor-inhibiting abilities; Initial volume (mm^3) [3]: 100.6 mm^3
